# Results: patent publication US20210379085A1, “HALOGENATED SALICYLANILIDES FOR TREATING THE SYMPTOMS OF DERMATITIS” (Union Therapeutics A/S, priority 2018, published 2021)
# Key:
# Format in all cases: in vivo, human
# [1] = system: immune cell infiltrates (CD3, langerin, CD11c, FceR1) in lesional skin; experiment: Immunohistochemistry (IHC) of cell biomarkers in lesional skin biopsies (Example 3); details: topical 2% niclosamide
# Protocol: (§1) Patients received topical applications of a niclosamide 2% composition and vehicle once daily for 3 weeks, followed by a 1-week follow up period. Topical niclosamide 2% and vehicle was applied on two separate target lesions of atopic dermatitis (lesions of at least 3×3-cm that are at least 2 cm apart, excluding the face, scalp, genitals, hands, and feet). The application areas (5×5-cm) were randomized (1:1) to once daily application of niclosamide 2% or vehicle at 5 mg/cm^2 without occlusion 6 days per week. Patients came to the study site for all study product application for a total of 3 weeks.
# (§2) Skin barrier and inflammation biomarker levels were determined from lesional skin biopsies from application areas.
# (§3) The skin biopsy samples were analysed by immunohistochemistry (IHC), and by gene expression studies by RT-PCR using TaqMan Low Density Array (TLDA), and by microarray using Affymetrix U133A Plus 2. The immunohistochemistry (IHC) was used to analyse cell biomarkers. The methodologies as disclosed by Guttman-Yassky et al, “Major differences in inflammatory dendritic cells and their products distinguish atopic dermatitis from psoriasis”, The Journal of Allergy and Clinical Immunology, vol. 119, issue 5, pages 1210-1217, 2007, were followed except for that U133A Plus 2-set Gene Chip probe arrays was used instead of U95A-set Gene Chip probe arrays.
# [2] = system: skin barrier and inflammation biomarkers in lesional skin biopsies; experiment: Microarray (Affymetrix U133A Plus 2) biomarker gene expression in lesional skin biopsies (Example 3)
# Protocol: as §1, §2, §3
# Experimental design: The hybridization strategy was in concordance with experimental design principles, by for example keeping all samples from the same patient in the same date, and always include samples from every treatment arm/group.
# Quality Control and Pre-processing: Quality control of microarray chips were carried out using standard QC metrics and R package microarray Quality Control. Expression measures were obtained using GCRMA algorithm (Wu & Irizarry, 2004). Several visual and modelling techniques were used to elucidate if batch effect existed. Principal Component analysis plots were used to detect if any evident batch effect existed. If such batch effects were found, they were adjusted using Combat, an empirical Bayes method for adjusting data for batch effects that is robust to outliers in small sample sizes (Johnson, Li, & Rabinovic, 2007). The implementation of Combat by package sva was used.
# Probe-sets with at least 5% samples with expression larger than 3 (in log 2-scale) were kept for further analysis. Expression values were modelled using mixed-effect models with fixed factors Visit and Treatment Area and a random effect for each patient. Fold changes for the comparisons of interest were estimated and hypothesis testing was conducted on such comparisons using contrasts under the general framework for linear models in limma package. The inter-replicate correlation was computed by Duplicate Correlation function and the linear model was estimated by ImFit. P-values from the moderated (paired) t-test were adjusted for multiple hypotheses using the Benjamini-Hochberg procedure, which controls for FDR.
# [3] = system: lesional skin of patients with moderate atopic dermatitis; experiment: Skin thickness in lesional skin biopsies, Phase II atopic dermatitis study (Example 3); details: Day 22, compared to baseline and compared to vehicle; topical niclosamide 2% once daily 3 weeks
# Protocol: as §1
# Three skin biopsies were collected in all patients (one from lesional skin at baseline, pre-dosing at Day 1, and two from lesional skin at Day 22 (one where topical niclosamide 2% had been applied and one where the vehicle had been applied). The lesional skin biopsies were analysed for skin thickness and inflammation biomarkers.
# [4] = Day 22 compared to baseline (pre-dosing at Day 1)
# [5] = Day 22, topical administration of 2% niclosamide, p<0.05
# [6] = fold change, Day 22, vehicle-treated vs niclosamide-treated lesion, topical niclosamide 2% once daily 3 weeks, AD lesional skin
# [7] = fold change, Day 22 vs baseline, topical niclosamide 2% once daily 3 weeks, AD lesional skin
structure (smiles),measurement,setting,value
"O=C(Nc1ccc([N+](=O)[O-])cc1Cl)c1cc(Cl)ccc1O [Niclosamide, niclosamide]","inflammatory cells (dendritic cells: CD11c, FceR1 in epidermis, and Langerhans cells: langerin/CD207)",[1]; [4],Significant reductions
same,total amount of T cells (CD3) in dermis and epidermis,[1]; [4],No significant change
same,CD11c Dermis expression level,"[1]; Day 22 compared to baseline, clinically correlated to TSS",significantly changed
same,"CXCL1 downregulation, 2% niclosamide compared to vehicle (microarray values)",[2]; [5],−2.10
same,"PI3 downregulation, 2% niclosamide compared to vehicle (microarray values)",[2]; [5],−1.87
same,"S100A9 downregulation, 2% niclosamide compared to vehicle (microarray values)",[2]; [5],−1.88
same,"S100A12 downregulation, 2% niclosamide compared to vehicle (microarray values)",[2]; [5],−2.30
same,"ACOT2 expression, Vehicle vs. Niclosamide (Microarray)",[2]; [6],−1.35
same,"ACOX2 expression, Vehicle vs. Niclosamide (Microarray)",[2]; [6],−1.40
same,"CCL2 expression, Vehicle vs. Niclosamide (Microarray)",[2]; [6],1.56
same,"CCL13 expression, Vehicle vs. Niclosamide (Microarray)",[2]; [6],1.32
same,"CCL18 expression, Vehicle vs. Niclosamide (Microarray)",[2]; [6],1.66
same,"CCL20 expression, Vehicle vs. Niclosamide (Microarray)",[2]; [6],2.00
same,"CCL23 expression, Vehicle vs. Niclosamide (Microarray)",[2]; [6],1.63
same,"CCL26 expression, Vehicle vs. Niclosamide (Microarray)",[2]; [6],1.69
same,"CCR1 expression, Vehicle vs. Niclosamide (Microarray)",[2]; [6],1.55
same,"CCR6 expression, Vehicle vs. Niclosamide (Microarray)",[2]; [6],1.31
same,"CXCL1 expression, Vehicle vs. Niclosamide (Microarray)",[2]; [6],2.10
same,"DGAT2 expression, Vehicle vs. Niclosamide (Microarray)",[2]; [6],−1.19
same,"ELOVL3 expression, Vehicle vs. Niclosamide (Microarray)",[2]; [6],−1.66
same,"FA2H expression, Vehicle vs. Niclosamide (Microarray)",[2]; [6],−1.57
same,"FAR2 expression, Vehicle vs. Niclosamide (Microarray)",[2]; [6],−1.47
same,"FAXDC2 expression, Vehicle vs. Niclosamide (Microarray)",[2]; [6],−1.29
same,"IFNGR2 expression, Vehicle vs. Niclosamide (Microarray)",[2]; [6],1.10
same,"IL1F10 expression, Vehicle vs. Niclosamide (Microarray)",[2]; [6],−1.79
same,"IL4R expression, Vehicle vs. Niclosamide (Microarray)",[2]; [6],1.29
same,"IL26 expression, Vehicle vs. Niclosamide (Microarray)",[2]; [6],1.78
same,"KRT79 expression, Vehicle vs. Niclosamide (Microarray)",[2]; [6],−2.00
same,"LCN2 expression, Vehicle vs. Niclosamide (Microarray)",[2]; [6],1.69
same,"PI 3 expression, Vehicle vs. Niclosamide (Microarray)",[2]; [6],1.87
same,"PNPLA3 expression, Vehicle vs. Niclosamide (Microarray)",[2]; [6],−1.79
same,"PPARG expression, Vehicle vs. Niclosamide (Microarray)",[2]; [6],−1.55
same,"S100A9 expression, Vehicle vs. Niclosamide (Microarray)",[2]; [6],1.88
same,"S100A12 expression, Vehicle vs. Niclosamide (Microarray)",[2]; [6],2.30
same,"SPTLC3 expression, Vehicle vs. Niclosamide (Microarray)",[2]; [6],−1.30
same,"STAT1 expression, Vehicle vs. Niclosamide (Microarray)",[2]; [6],1.13
same,"STAT3 expression, Vehicle vs. Niclosamide (Microarray)",[2]; [6],1.16
same,"TNFSF4 expression, Vehicle vs. Niclosamide (Microarray)",[2]; [6],1.35
same,"ACER1 expression, Niclosamide vs Predose (Microarray)",[2]; [7],1.94
same,"ACOX2 expression, Niclosamide vs Predose (Microarray)",[2]; [7],1.40
same,"ACSL1 expression, Niclosamide vs Predose (Microarray)",[2]; [7],1.21
same,"ANXA6 expression, Niclosamide vs Predose (Microarray)",[2]; [7],−1.24
same,"ANXA9 expression, Niclosamide vs Predose (Microarray)",[2]; [7],1.56
same,"CCL2 expression, Niclosamide vs Predose (Microarray)",[2]; [7],−1.77
same,"CCL13 expression, Niclosamide vs Predose (Microarray)",[2]; [7],−1.40
same,"CCL18 expression, Niclosamide vs Predose (Microarray)",[2]; [7],−1.70
same,"CCL19 expression, Niclosamide vs Predose (Microarray)",[2]; [7],−1.56
same,"CCL22 expression, Niclosamide vs Predose (Microarray)",[2]; [7],−1.83
same,"CCR1 expression, Niclosamide vs Predose (Microarray)",[2]; [7],−1.90
same,"CCR2 expression, Niclosamide vs Predose (Microarray)",[2]; [7],−1.37
same,"CCR5 expression, Niclosamide vs Predose (Microarray)",[2]; [7],−1.40
same,"CCR6 expression, Niclosamide vs Predose (Microarray)",[2]; [7],−1.33
same,"CCR7 expression, Niclosamide vs Predose (Microarray)",[2]; [7],−1.51
same,"CD2 expression, Niclosamide vs Predose (Microarray)",[2]; [7],−1.56
same,"CD3D expression, Niclosamide vs Predose (Microarray)",[2]; [7],−1.63
same,"CD3G expression, Niclosamide vs Predose (Microarray)",[2]; [7],−1.62
same,"CD28 expression, Niclosamide vs Predose (Microarray)",[2]; [7],−1.72
same,"CD86 expression, Niclosamide vs Predose (Microarray)",[2]; [7],−1.60
same,"CDSN expression, Niclosamide vs Predose (Microarray)",[2]; [7],1.14
same,"CERS3 expression, Niclosamide vs Predose (Microarray)",[2]; [7],1.13
same,"CLDN1 expression, Niclosamide vs Predose (Microarray)",[2]; [7],1.17
same,"CLDN23 expression, Niclosamide vs Predose (Microarray)",[2]; [7],1.42
same,"CLN8 expression, Niclosamide vs Predose (Microarray)",[2]; [7],1.15
same,"CXCL1 expression, Niclosamide vs Predose (Microarray)",[2]; [7],−2.83
same,"CXCL2 expression, Niclosamide vs Predose (Microarray)",[2]; [7],−1.81
same,"DGAT2 expression, Niclosamide vs Predose (Microarray)",[2]; [7],1.33
same,"DHCR7 expression, Niclosamide vs Predose (Microarray)",[2]; [7],1.12
same,"ELOVL3 expression, Niclosamide vs Predose (Microarray)",[2]; [7],1.81
same,"EREG expression, Niclosamide vs Predose (Microarray)",[2]; [7],1.19
same,"FA2H expression, Niclosamide vs Predose (Microarray)",[2]; [7],1.50
same,"FAR2 expression, Niclosamide vs Predose (Microarray)",[2]; [7],1.48
same,"FAXDC2 expression, Niclosamide vs Predose (Microarray)",[2]; [7],1.46
same,"FLG expression, Niclosamide vs Predose (Microarray)",[2]; [7],1.17
same,"IFNGR2 expression, Niclosamide vs Predose (Microarray)",[2]; [7],−1.13
same,"IL1F10 expression, Niclosamide vs Predose (Microarray)",[2]; [7],1.98
same,"IL2RA expression, Niclosamide vs Predose (Microarray)",[2]; [7],−1.27
same,"IL4R expression, Niclosamide vs Predose (Microarray)",[2]; [7],−1.80
same,"IL6R expression, Niclosamide vs Predose (Microarray)",[2]; [7],−1.25
same,"IL7R expression, Niclosamide vs Predose (Microarray)",[2]; [7],−1.58
same,"IL12RB2 expression, Niclosamide vs Predose (Microarray)",[2]; [7],−1.21
same,"IL24 expression, Niclosamide vs Predose (Microarray)",[2]; [7],−2.19
same,"IL37 expression, Niclosamide vs Predose (Microarray)",[2]; [7],1.69
same,"IRF1 expression, Niclosamide vs Predose (Microarray)",[2]; [7],−1.37
same,"KRT23 expression, Niclosamide vs Predose (Microarray)",[2]; [7],1.26
same,"KRT77 expression, Niclosamide vs Predose (Microarray)",[2]; [7],1.43
same,"KRT79 expression, Niclosamide vs Predose (Microarray)",[2]; [7],1.91
same,"LCN2 expression, Niclosamide vs Predose (Microarray)",[2]; [7],−1.62
same,"MMP12 expression, Niclosamide vs Predose (Microarray)",[2]; [7],−2.81
same,"PI 3 expression, Niclosamide vs Predose (Microarray)",[2]; [7],−3.13
same,"PNPLA3 expression, Niclosamide vs Predose (Microarray)",[2]; [7],1.91
same,"PPL expression, Niclosamide vs Predose (Microarray)",[2]; [7],1.06
same,"S100A7 expression, Niclosamide vs Predose (Microarray)",[2]; [7],−1.17
same,"S100A8 expression, Niclosamide vs Predose (Microarray)",[2]; [7],−1.45
same,"S100A9 expression, Niclosamide vs Predose (Microarray)",[2]; [7],−2.81
same,"S100A12 expression, Niclosamide vs Predose (Microarray)",[2]; [7],−3.62
same,"S100P expression, Niclosamide vs Predose (Microarray)",[2]; [7],−1.35
same,"SCEL expression, Niclosamide vs Predose (Microarray)",[2]; [7],1.43
same,"SERPINB1 expression, Niclosamide vs Predose (Microarray)",[2]; [7],−1.29
same,"SERPINB4 expression, Niclosamide vs Predose (Microarray)",[2]; [7],−1.54
same,"SPTLC3 expression, Niclosamide vs Predose (Microarray)",[2]; [7],1.44
same,"STAT3 expression, Niclosamide vs Predose (Microarray)",[2]; [7],−1.13
same,"TJP3 expression, Niclosamide vs Predose (Microarray)",[2]; [7],1.51
same,"TNFSF4 expression, Niclosamide vs Predose (Microarray)",[2]; [7],−1.64
same,skin thickness,[3],No differences
